Source: patent US20210395327A1, “Growth Hormone-Releasing Hormone Antagonists and Uses Thereof” (United States Government As Represented By The Department …, priority 2019, published 2021)
Entries after “also recorded” stand apart in the source; their conditions may differ. Non-standard residues stand in square brackets, D forms with d. Residues, ends and D or L forms follow the SMILES beside them. *: point of attachment. Phenylacetyl(2,3,4,5,6-F5) = O=C(Cc1c(F)c(F)c(F)c(F)c1F)*; Phe(F5) = N[C@@H](Cc1c(F)c(F)c(F)c(F)c1F)C(=O)O; Phe(4-Cl) = N[C@@H](Cc1ccc(Cl)cc1)C(=O)O; hArg = N=C(N)NCCCC[C@H](N)C(=O)O; 12Ado = NCCCCCCCCCCCC(=O)O; Nle = CCCC[C@H](N)C(=O)O; Orn = NCCC[C@H](N)C(=O)O; Abu = CC[C@H](N)C(=O)O; PhAc = O=C(Cc1ccccc1)*

How the values were obtained:
HT-29 colon cancer cells = experiment: In vitro cell viability, HT-29; format: cell-based, human; details: Table 3B; 5 μM for 72 H; MIA-602 = 1
Experimental: The inhibitory effects of the various synthesized GHRH antagonists were tested in cell proliferation assays in various human cancer cell lines including stomach cancer (KATOIII, N87), colon cancer (HT-29), urothelial cancer (J82, RT4), pancreatic cancer (PANC-1, CFPAC-1), prostatic cancer (PC3), breast cancer (MX-1, HCC1806), ovarian cancer (SK-OV-3, OVCAR-3) and lung cancer (HCC827, H460).
Cell culture. Human cancer cell lines including pancreatic (PANC-1 and CFPAC-1), lung (HCC827 and H460), stomach (NCI-N87 and KATOIII), urothelial (J82, RT4), prostatic (PC3), breast (MX-1 and HCC 1806), colorectal (HT-29), and ovarian (SK-OV-3 and OVCAR-3) were obtained from the American Type Culture Collection (ATCC) and cultured at 37° C. in a humidified 95% air/5% CO2 atmosphere in the medium recommended by ATCC.
In vitro cell viability. Cell viability was analyzed as follows: cancer cells including pancreatic (PANC-1 and CFPAC-1), lung (HCC827 and H460), stomach (NCI-N87 and KATOIII), urothelial (J82, RT4), prostatic (PC3) and breast (MX-1 and HCC 1806), colorectal (HT-29) and ovarian (SK-OV-3 and OVCAR-3) were grown on 96 well plates to ˜60% confluence, the cells were starved for 24 h in culture medium containing 0.5% FBS. Cells were then treated with GHRH antagonists MIA602 AVR compounds at concentrations of 1, 2.5 or 5 μM, or vehicle (0.1% DMSO) in quintuplicates for 72 hours. The medium was replaced every 48 hours. Cell viability was measured using CellTiter 96 aqueous one solution kit (Promega). Inhibitory effects of tested AVR compounds in comparison to that of MIA602 are presented as inhibitory potency.
Inhibitory effects of selected AVR compounds in comparison to that of MIA602 are presented as inhibitory potency (e.g., percentage of inhibition). […] The cell lines tested including lung cancer HCC827 (FIG. 2A), pancreatic cancer CFPAC-1 (FIG. 2B), stomach cancer N87 (FIG. 2C), colon cancer HT-29 (FIG. 2D), breast cancers MX-1 and HCC1806 (FIGS. 2 E, F). Based on the results of cell proliferation assay after cancer cells were treated with antagonist at concentration of 5 μM for 72H, the relative inhibitory potency of AVR antagonists in comparison to MIA-602 is summarized in Table 3 A and B. Over 60 AVR compounds were tested in 12 cancer cell lines.
Based on the results of cell proliferation assay after cancer cells were treated with antagonist at concentration of 5 µM for 72H, * at concentration of 2 µM for 72 H.

HCC827 lung cancer cells = experiment: In vitro cell viability, HCC827; format: cell-based, human; details: for In vitro relative inhibitory potency in comparison to MIA-602, HCC827: Table 3B, 5 μM for 72 H, MIA-602 = 1
Method in brief: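 Cells grown to ~60% confluence, serum-starved 24 h in 0.5% FBS medium, then exposed to compounds at 5 μM (some at 2 μM) or 0.1% DMSO vehicle for 72 h, in quintuplicate, medium changed every 48 h. Viability read by MTS-type CellTiter 96 AQueous assay; values are inhibitory potency relative to MIA602.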

[1] = target: T1, membrane GHRH-receptors on human anterior pituitary cells (Homo sapiens, UniProt Q02643); experiment: Receptor binding, displacement of 125I-[His1,Nle27]-hGH-RH(1-32)NH2 on human pituitary membranes; details: for binding affinity to membrane receptors of human pituitary cells (in words): competitive binding, human pituitary membrane fractions; for IC50: membrane receptors on human anterior pituitary cells, mean of two to three determinations, read-out: IC50
T1 construct: Human pituitary was purchased from the National Hormone and Peptide Program; tissue National Hormone and Peptide Program; host or cells: human pituitary (membrane fractions)
T1 sequence (Q02643 23-423): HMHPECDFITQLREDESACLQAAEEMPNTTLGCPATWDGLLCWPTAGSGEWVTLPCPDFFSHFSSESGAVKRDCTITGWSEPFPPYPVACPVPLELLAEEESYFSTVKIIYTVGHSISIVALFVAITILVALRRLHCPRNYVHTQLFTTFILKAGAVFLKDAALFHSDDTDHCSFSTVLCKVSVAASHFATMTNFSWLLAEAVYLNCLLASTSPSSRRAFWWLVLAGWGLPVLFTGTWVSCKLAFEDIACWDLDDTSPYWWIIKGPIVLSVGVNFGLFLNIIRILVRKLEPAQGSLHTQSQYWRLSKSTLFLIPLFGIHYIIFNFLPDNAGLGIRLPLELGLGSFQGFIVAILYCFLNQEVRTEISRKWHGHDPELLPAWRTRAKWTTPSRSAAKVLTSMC
Method in brief: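 Membrane fractions from human pituitary; peptides displace 125I-[His1,Nle27]-hGH-RH(1-32)NH2. IC50 is the dose giving 50% inhibition of specific binding, from duplicate tubes. Relative affinity is the ratio of test IC50 to hGH-RH(1-29)NH2 IC50.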

[2] = test system: GH release from rat pituitary cells; experiment: Inhibition of GH release from rat pituitary cells in vitro (GH ELISA); format: cell-based; details: for Relative GH release: analogs 20 nM, then with 1 nM GHRH(1-29)NH2 for 30 minutes, Control = 1.00; for inhibitory effects on the release of GH, compared with MIA-602 (in words): rat pituitary cells in vitro, 20 nM
Experimental: In vitro assessment of the antagonistic activity of GHRH analogs. Rats were decapitated and pituitaries were collected in pre-warmed HBSS (Hanks' Balanced Salt Solution). Tissue was then cut into small pieces and digested in HBSS medium containing 3% BSA, 50 μg/ml gentamycin and 0.5% collagenase for 50 minutes at 37° C. Cells were further dispersed by pipetting and passed through a 100 μm cell strainer with the addition of DMEM containing 50 μg/ml gentamycin. 10% horse serum and 2.5% FBS (growth medium). Cells were harvested at 475×g for 2 minutes, resuspended in fresh growth medium and seeded onto poly-D-lysine-coated 24-well plates (7 pituitaries/plate). Cells were left to recover for 4 days. Growth medium was then replaced with serum-free DMEM for 4 hours and GHRH analogs (at concentration of 20 nM) were added in DMEM containing 0.1% BSA for 30 minutes. Cells were replenished with medium containing the same concentration of the analogs and 1 nM GHRH(1-29)NH2 for 30 minutes. Medium from this step was collected, centrifuged at 800 g for 3 minutes and GH concentration was determined by ELISA (ALPCO Diagnostics, Mill Valley, Calif.) according to the manufacturer's instruction.

| Structure (SMILES) | In vitro relative inhibitory potency in comparison to MIA-602, HT-29 (HT-29 colon cancer cells) | In vitro relative inhibitory potency in comparison to MIA-602, HCC827 (HCC827 lung cancer cells) | binding affinity to membrane receptors of human pituitary cells (in words) [1] | IC50 [1] [nM] | Relative GH release [2] | inhibitory effects on the release of GH, compared with MIA-602 (in words) [2] | relative inhibitory potency in comparison to MIA-602, Lung IICC827 (HCC827 lung cancer cells; antagonist 5 μM for 72 h, cell proliferation assay, MIA602 = 1) |
| --- | --- | --- | --- | --- | --- | --- | --- |
| CCCC[C@H](NC(=O)[C@@H](NC(=O)[C@H](CC(=O)O)NC(=O)[C@H](CCC(N)=O)NC(=O)[C@H](CC(C)C)NC(=O)[C@H](CC(C)C)NC(=O)[C@H](CCCCN)NC(=O)[C@H](CCCNC(=N)N)NC(=O)[C@H](C)NC(=O)[C@H](CO)NC(=O)[C@H](CC(C)C)NC(=O)[C@H](CCC(N)=O)NC(=O)[C@H](CC)NC(=O)[C@H](CC(C)C)NC(=O)[C@@H](NC(=O)[C@H](CCCCN)NC(=O)[C@H](CCCNC(=N)N)NC(=O)[C@H](Cc1ccc(OC)cc1)NC(=O)[C@H](CCCCNC(=N)N)NC(=O)[C@H](C)NC(=O)[C@@H](NC(=O)[C@H](Cc1c(F)c(F)c(F)c(F)c1F)NC(=O)[C@@H](NC(=O)[C@H](C)NC(=O)[C@H](CC(=O)O)NC(=O)[C@@H](CCCNC(=N)N)NC(=O)[C@H](Cc1ccc(O)cc1)NC(=O)CCCCCCCCCCCNC(=O)Cc1c(F)c(F)c(F)c(F)c1F)[C@@H](C)CC)[C@@H](C)O)C(C)C)[C@@H](C)CC)C(=O)N[C@H](CCCNC(=N)N)C(=O)N[C@@H](CCCCNC(=N)N)C(=O)NCCCCCCCCCCCC(N)=O [AVR-352, 5FPhAC-Ada-Tyr-DArg-Asp-Ala-Ile-5FPhe-Thr-Ala-Har-Tyr(Me)-Arg-Lys-Val-Leu-Abu-Gln-Leu-Ser-Ala-Arg-Lys-Leu-Leu-Gln-Asp-Ile-Nle-DArg-Har-Ada-NH2] ({Phenylacetyl(2,3,4,5,6-F5)-12Ado}-Y[dR]DAI[Phe(F5)]TA[hArg]Y(Me)RKVL[Abu]QLSARKLLQDI[Nle][dR][hArg][12Ado]-NH2) | 1.197 | 2.01 | higher binding affinity in comparison to MIA-602; also recorded: highest binding affinities | 0.09 | 0.72 ± 0.03 | higher inhibitory effects than MIA-602 | – |
| CCCC[C@H](NC(=O)[C@@H](NC(=O)[C@H](CC(=O)O)NC(=O)[C@H](CCC(N)=O)NC(=O)[C@H](CC(C)C)NC(=O)[C@H](CC(C)C)NC(=O)[C@H](CCCCN)NC(=O)[C@H](CCCNC(=N)N)NC(=O)[C@H](C)NC(=O)[C@H](CO)NC(=O)[C@H](CC(C)C)NC(=O)[C@H](CCC(N)=O)NC(=O)[C@H](CC)NC(=O)[C@H](CC(C)C)NC(=O)[C@@H](NC(=O)[C@H](CCCCN)NC(=O)[C@H](CCCNC(=N)N)NC(=O)[C@H](Cc1c(F)c(F)c(F)c(F)c1F)NC(=O)[C@H](CCCCNC(=N)N)NC(=O)[C@H](C)NC(=O)[C@@H](NC(=O)[C@H](Cc1ccc(Cl)cc1)NC(=O)[C@@H](NC(=O)[C@H](C)NC(=O)[C@H](CC(=O)O)NC(=O)[C@@H](CCCNC(=N)N)NC(=O)[C@H](Cc1ccc(O)cc1)NC(=O)CCCCCCCCCCCNC(=O)Cc1c(F)c(F)c(F)c(F)c1F)[C@@H](C)CC)[C@@H](C)O)C(C)C)[C@@H](C)CC)C(=O)N[C@H](CCCNC(=N)N)C(=O)N[C@@H](CCCCNC(=N)N)C(=O)NCCCCCCCCCCCC(N)=O [AVR-353, 5FPhAC-Ada-Tyr-DArg-Asp-Ala-Ile-Cpa-Thr-Ala-Har-5FPhe-Arg-Lys-Val-Leu-Abu-Gln-Leu-Ser-Ala-Arg-Lys-Leu-Leu-Gln-Asp-Ile-Nle-DArg-Har-Ada-NH2] ({Phenylacetyl(2,3,4,5,6-F5)-12Ado}-Y[dR]DAI[Phe(4-Cl)]TA[hArg][Phe(F5)]RKVL[Abu]QLSARKLLQDI[Nle][dR][hArg][12Ado]-NH2) | 1.222 | 1.641 | higher binding affinity in comparison to MIA-602; also recorded: highest binding affinities | 0.11 | 0.65 ± 0.08 | higher inhibitory effects than MIA-602 | – |
| CCCC[C@H](NC(=O)[C@@H](NC(=O)[C@H](CC(=O)O)NC(=O)[C@H](CCC(N)=O)NC(=O)[C@H](CC(C)C)NC(=O)[C@H](CC(C)C)NC(=O)[C@H](CCCN)NC(=O)[C@H](Cc1c[nH]cn1)NC(=O)[C@H](C)NC(=O)[C@H](CO)NC(=O)[C@H](CC(C)C)NC(=O)[C@H](CCC(N)=O)NC(=O)[C@H](CC)NC(=O)[C@H](CC(C)C)NC(=O)[C@@H](NC(=O)[C@H](CCCN)NC(=O)[C@H](Cc1c[nH]cn1)NC(=O)[C@H](Cc1ccc(OC)cc1)NC(=O)[C@H](CCCCNC(=N)N)NC(=O)[C@H](C)NC(=O)[C@@H](NC(=O)[C@H](Cc1c(F)c(F)c(F)c(F)c1F)NC(=O)[C@@H](NC(=O)[C@H](C)NC(=O)[C@H](CC(=O)O)NC(=O)[C@@H](CCCNC(=N)N)NC(=O)[C@H](Cc1ccc(O)cc1)NC(=O)CCCCCCCCCCCNC(=O)Cc1ccccc1)[C@@H](C)CC)[C@@H](C)O)C(C)C)[C@@H](C)CC)C(=O)N[C@H](CCCNC(=N)N)C(=O)N[C@@H](CCCCNC(=N)N)C(N)=O [MIA-602, PhAC-Ada, Tyr D-Arg, Asp, Ala, Ile, 5FPhe, Thr, Ala, Har, Tyr(Me), His, Orn, Val, Leu, Abu, Gin, Leu, Ser, Ala, His, Om, Leu, Leu, Gin, Asp, Ile; Nle, D-Arg, Har NH2, reference compound] ({PhAc-12Ado}-Y[dR]DAI[Phe(F5)]TA[hArg]Y(Me)H[Orn]VL[Abu]QLSAH[Orn]LLQDI[Nle][dR][hArg]-NH2) | 1 | 1 | – | – | 0.78 ± 0.01 | – | 1 |
